Laboratory results as given in publication PMC12467033, “Exploring the Inhibitory Potential of Six Porphyrin Compounds Against α-Amylase and α-Glucosidase Linked to Diabetes” (Biomolecules, 2025).
Values joined by “and” are separate entries in the source; they are usually repeats but may differ in a detail not shown here. Equal entries are not always repeated. Where two headings read alike, the source gives them in different places.

Experiments:
[1] = molecular target: T1, α-glucosidase (Saccharomyces cerevisiae, UniProt P53341); assay type: biochemical; conditions: for type of inhibition of α-glucosidase: Lineweaver–Burk plots; for reversibility of inhibition of α-glucosidase: enzyme 100–400 U/L, substrate 5 mmol/L; for Kis: enzyme–substrate complex inhibition constant
T1 sequence (P53341 whole entry): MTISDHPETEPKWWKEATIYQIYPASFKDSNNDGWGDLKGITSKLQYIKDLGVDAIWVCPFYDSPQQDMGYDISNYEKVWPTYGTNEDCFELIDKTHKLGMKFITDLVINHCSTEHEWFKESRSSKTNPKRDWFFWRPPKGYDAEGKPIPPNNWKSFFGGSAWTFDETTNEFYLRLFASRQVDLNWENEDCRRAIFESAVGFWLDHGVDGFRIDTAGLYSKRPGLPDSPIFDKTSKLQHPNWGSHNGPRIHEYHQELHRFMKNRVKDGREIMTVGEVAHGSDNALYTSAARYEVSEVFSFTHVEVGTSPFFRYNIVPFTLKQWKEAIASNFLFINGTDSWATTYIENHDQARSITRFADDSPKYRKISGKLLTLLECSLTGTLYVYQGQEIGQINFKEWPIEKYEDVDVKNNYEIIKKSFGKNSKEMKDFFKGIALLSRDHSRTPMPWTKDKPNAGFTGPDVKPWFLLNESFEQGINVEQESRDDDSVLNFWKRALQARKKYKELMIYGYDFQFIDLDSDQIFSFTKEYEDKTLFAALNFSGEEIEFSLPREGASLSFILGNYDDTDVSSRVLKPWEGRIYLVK
Description: In the experiment, the concentration of the fixed substrate Gal-G2-α-CNP/pNPG solution was 5 mmol/L, and the concentrations of the two enzymes (100, 200, 300, 400 U/L) were used to determine the effect of different concentrations of porphyrins on enzyme activity. The concentration of the enzyme was 200 U/L, and the concentration of the substrate Gal-G2-α-CNP/pNPG solution (2.5, 5, 7.5, 10 mmol/L) was used to determine the effect of different concentrations of porphyrins on the enzyme-catalyzed substrate activity.
Upon identifying the type of inhibition, the kinetic equations vary for different inhibition types.
In the formula, v, Vmax, Km, Ki, and Kis represent the reaction rate, maximum reaction rate, Michaelis constant, and free enzyme inhibition constant, respectively, and the binding enzyme inhibition constant. [S] denotes the substrate concentration. [I] denotes the inhibitor concentration.

[2] = molecular target: T1, α-glucosidase; test: Fluorescence quenching, binding and thermodynamics with α-glucosidase; conditions: for binding constants K: 310 K; for quenching mechanism of α-glucosidase fluorescence: Stern–Volmer plots; for quenching mechanism of α-glucosidase fluorescence / ΔH^0 / ΔS^0: 298–310 K; for ΔH^0 / ΔS^0: Van’t Hoff
Procedure: In the α-amylase experiment, a series of porphyrins and amylase (200 U/L) were mixed in a volume ratio of 1:1. In the α-glucosidase experiment, the glucosidase concentration was 400 U/L, mixed in a volume ratio of 1:1; the samples were maintained at three different temperatures (298, 304, and 310 K) for 30 min, with excitation at 280 nm and emission scanning from 300 to 500 nm.
(§1) The Stern–Volmer equation [35] was adopted to determine the quenching mechanisms between six porphyrin compounds and both enzymes in the experimental group, with Formula (6):(6) F0/F=1+Ksv[Q]=1+Kqτ0[Q]
(§2) The Stern–Volmer equation was adapted based on experimental data to more accurately characterize the quenching behavior [36], with Formula (7):(7) F0/F=e^Ksv[Q]=e^Kqτ0[Q]
(§3) In the formula, the fluorescence quenching ratio was calculated as F0/F, where F0 corresponds to the emission intensity of pure α-amylase solution (control) and F denotes the intensity measured after the incremental addition of porphyrin ligands. KSV and Kq denote the Stern–Volmer quenching constant and the bimolecular quenching rate constant, respectively, τ0 (10^−8 s) is the average fluorescence lifetime of the fluorophore in the absence of quencher, and [Q] indicates the concentration of porphyrin compounds.
(§4) Due to the presence of an internal filtration effect, a decrease in the fluorescence intensity of the system may occur. Therefore, all fluorescence data were corrected using Formula (8) to eliminate the internal filtration effect.(8) Fcor=Fobse^(Aex+Aem)/2
(§5) The evaluation of the interaction forces between porphyrin compounds and the two enzymes can be achieved by calculating thermodynamic parameters. When both ΔH^0 and ΔS^0 are positive, the predominant interaction force is hydrophobic. When both ΔH^0 and ΔS^0 are negative, the main forces are hydrogen bonding and van der Waals forces. When ΔH^0 < 0 and ΔS^0 > 0, the primary interaction is electrostatic attraction.
(§6) The thermodynamic parameters were calculated using Formulas (9) and (10), and then the Van’t Hoff plot for the interactions between the porphyrin compounds and the two enzymes was generated by plotting lnKa on the Y-axis versus 1/T on the X-axis.(9) lnKa=−ΔH^0/RT+ΔS^0/R (10) ΔG^0=ΔH^0−TΔS^0=−RTlnKa

[3] = molecular target: T1, α-glucosidase; test: FTIR secondary structure analysis of α-GLU complexes; conditions: enzyme–porphyrin molar ratio 1:2, amide I band
Description: (§7) A molar ratio of 1:2 (α-amylase/α-glucosidase)–porphyrin solution was placed in a cryocentrifugal concentrator and the dried solid sample was mixed with dry KBr and measured using a Nicolet IS-50 FTIR Spectrometer (ThermoFisher, Waltham, MA, USA) with a scanning range of 4000–400 cm^−1 and a resolution of 4 cm^−1. The overlapping peaks in the amide I band (1700–1600 cm^−1) were further analyzed into multiple feature sub-peaks, and quantitative analysis of the relative content of various secondary structures in proteins using curve fitting methods was performed.

[4] = molecular target: T2, α-amylase (Sus scrofa, UniProt P00690); test: FTIR secondary structure analysis of α-AMY complexes; conditions: enzyme–porphyrin molar ratio 1:2, amide I band
T2 sequence (P00690 16-511): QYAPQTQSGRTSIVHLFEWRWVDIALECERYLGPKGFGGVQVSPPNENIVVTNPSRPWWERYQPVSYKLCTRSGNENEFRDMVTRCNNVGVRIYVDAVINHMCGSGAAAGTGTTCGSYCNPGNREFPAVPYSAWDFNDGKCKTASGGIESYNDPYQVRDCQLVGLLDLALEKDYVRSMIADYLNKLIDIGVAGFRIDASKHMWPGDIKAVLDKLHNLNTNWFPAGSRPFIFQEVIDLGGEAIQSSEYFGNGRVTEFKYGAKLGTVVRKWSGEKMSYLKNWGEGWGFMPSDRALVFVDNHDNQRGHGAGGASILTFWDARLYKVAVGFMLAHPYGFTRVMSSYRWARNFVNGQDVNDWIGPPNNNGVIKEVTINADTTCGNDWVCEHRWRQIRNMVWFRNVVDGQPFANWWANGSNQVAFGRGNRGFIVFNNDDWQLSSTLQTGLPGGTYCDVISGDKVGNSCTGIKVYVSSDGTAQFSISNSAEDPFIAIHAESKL
Description: as §7

[5] = molecular target: T2, α-amylase; test: Fluorescence quenching, binding and thermodynamics with α-amylase; conditions: for quenching mechanism of α-amylase fluorescence: Stern–Volmer plots; for quenching mechanism of α-amylase fluorescence / ΔH^0 / ΔS^0: 298–310 K; for ΔH^0 / ΔS^0: Van’t Hoff
Description: In the α-amylase experiment, a series of porphyrins and amylase (200 U/L) were mixed in a volume ratio of 1:1.
as §1, §2, §3, §4, §5, §6

Nc1ccc(-c2c3nc(c(-c4ccc(N)cc4)c4ccc([nH]4)c(-c4ccc(N)cc4)c4nc(c(-c5ccc(N)cc5)c5ccc2[nH]5)C=C4)C=C3)cc1 [TAPP]
Vmax ([1]; C 12.5 μg/mL): 0.0791 ± 0.0021 ΔOD/min | Vmax ([1]; C 15 μg/mL): 0.0767 ± 0.0013 ΔOD/min | Vmax ([1]; C 17.5 μg/mL): 0.0736 ± 0.0015 ΔOD/min | Vmax ([1]; C 20 μg/mL): 0.0711 ± 0.0011 ΔOD/min | Vmax ([1]; C 22.5 μg/mL): 0.0688 ± 0.0012 ΔOD/min | type of inhibition of α-glucosidase [1]: mixed type | reversibility of inhibition of α-glucosidase [1]: reversible inhibition | Kis [1]: 55.1227 ± 0.1247 µg/mL | binding constants K [2]: (0.65 ± 0.02) × 10^5 L·mol^−1 | quenching mechanism of α-glucosidase fluorescence [2]: static quenching | Kq ([2]; T 298 K): 6.25 ± 0.04 ×10^12 L/mol/s | Ksv ([2]; T 298 K): 6.25 ± 0.04 ×10^4 L/mol | n (number of binding sites) ([2]; T 298 K): 1.14 | ΔG^0 ([2]; T 298 K): -7.424 ± 0.019 kcal/mol | Kq ([2]; T 304 K): 5.71 ± 0.01 ×10^12 L/mol/s | Ksv ([2]; T 304 K): 5.71 ± 0.01 ×10^4 L/mol | n (number of binding sites) ([2]; T 304 K): 1.09 | ΔG^0 ([2]; T 304 K): -7.165 ± 0.012 kcal/mol | Kq ([2]; T 310 K): 5.66 ± 0.02 ×10^12 L/mol/s | Ksv ([2]; T 310 K): 5.66 ± 0.02 ×10^4 L/mol | n (number of binding sites) ([2]; T 310 K): 1.01 | ΔG^0 ([2]; T 310 K): -6.826 ± 0.012 kcal/mol | ΔH^0 [2]: -22.23 ± 0.019 kcal/mol | ΔS^0 [2]: −207.76 ± 0.14 J/mol/k | Random Coil [3]: 23.93 ± 0.05% | α-Helix [3]: 22.82 ± 0.08% | β-Antiparallel [3]: 1.96 ± 0.01% | β-Sheet [3]: 12.99 ± 0.13% | β-Turn [3]: 38.30 ± 0.08% | Random Coil [4]: 9.94% and 9.94 ± 0.02% | α-Helix [4]: 22.45 ± 0.07% | β-Antiparallel [4]: 18.98% and 18.98 ± 0.04% | β-Sheet [4]: 14.62 ± 0.03% | β-Turn [4]: 34.00 ± 0.09% | quenching mechanism of α-amylase fluorescence [5]: pure static quenching | Kq ([5]; T 298 K): 4.07 ± 0.05 ×10^12 L/mol/s | Ksv ([5]; T 298 K): 4.07 ± 0.05 ×10^4 L/mol | n (number of binding sites) ([5]; T 298 K): 1.48 | ΔG^0 ([5]; T 298 K): -9.168 ± 0.0263 kcal/mol | Kq ([5]; T 304 K): 3.37 ± 0.02 ×10^12 L/mol/s | Ksv ([5]; T 304 K): 3.37 ± 0.02 ×10^4 L/mol | n (number of binding sites) ([5]; T 304 K): 1.40 | ΔG^0 ([5]; T 304 K): -8.817 ± 0.0287 kcal/mol | Kq ([5]; T 310 K): 3.07 ± 0.09 ×10^12 L/mol/s | Ksv ([5]; T 310 K): 3.07 ± 0.09 ×10^4 L/mol | n (number of binding sites) ([5]; T 310 K): 1.31 | ΔG^0 ([5]; T 310 K): -8.329 ± 0.0239 kcal/mol | ΔH^0 [5]: -29.935 ± 0.0287 kcal/mol | ΔS^0 [5]: −291.29 ± 0.12 J/mol/k

O=C(O)c1ccc(-c2c3nc(c(-c4ccc(C(=O)O)cc4)c4ccc([nH]4)c(-c4ccc(C(=O)O)cc4)c4nc(c(-c5ccc(C(=O)O)cc5)c5ccc2[nH]5)C=C4)C=C3)cc1 [TCPP]
Vmax ([1]; C 5 μg/mL): 0.1369 ± 0.0049 ΔOD/min | Vmax ([1]; C 25 μg/mL): 0.1016 ± 0.0014 ΔOD/min | Vmax ([1]; C 50 μg/mL): 0.0745 ± 0.0019 ΔOD/min | Vmax ([1]; C 100 μg/mL): 0.0516 ± 0.0017 ΔOD/min | Vmax ([1]; C 150 μg/mL): 0.0389 ± 0.0006 ΔOD/min | type of inhibition of α-glucosidase [1]: mixed type | reversibility of inhibition of α-glucosidase [1]: reversible inhibition | Kis [1]: 52.5334 ± 0.1408 µg/mL | binding constants K [2]: (0.97 ± 0.02) × 10^5 L·mol^−1 | quenching mechanism of α-glucosidase fluorescence [2]: static quenching | Kq ([2]; T 298 K): 7.45 ± 0.04 ×10^12 L/mol/s | Ksv ([2]; T 298 K): 7.45 ± 0.04 ×10^4 L/mol | n (number of binding sites) ([2]; T 298 K): 1.30 | ΔG^0 ([2]; T 298 K): -8.368 ± 0.014 kcal/mol | Kq ([2]; T 304 K): 4.90 ± 0.02 ×10^12 L/mol/s | Ksv ([2]; T 304 K): 4.90 ± 0.02 ×10^4 L/mol | n (number of binding sites) ([2]; T 304 K): 1.19 | ΔG^0 ([2]; T 304 K): -7.651 ± 0.017 kcal/mol | Kq ([2]; T 310 K): 4.22 ± 0.09 ×10^12 L/mol/s | Ksv ([2]; T 310 K): 4.22 ± 0.09 ×10^4 L/mol | n (number of binding sites) ([2]; T 310 K): 1.07 | ΔG^0 ([2]; T 310 K): -7.075 ± 0.012 kcal/mol | ΔH^0 [2]: -40.504 ± 0.0239 kcal/mol | ΔS^0 [2]: −451.52 ± 0.12 J/mol/k | Random Coil [3]: 22.15 ± 0.04% | α-Helix [3]: 22.71 ± 0.05% | β-Antiparallel [3]: 9.57 ± 0.02% | β-Sheet [3]: 12.03 ± 0.02% | β-Turn [3]: 33.54 ± 0.07% | Random Coil [4]: 19.84 ± 0.06% | α-Helix [4]: 10.24 ± 0.02% | β-Antiparallel [4]: 11.75 ± 0.03% | β-Sheet [4]: 18.51 ± 0.05% | β-Turn [4]: 39.66 ± 0.09% | quenching mechanism of α-amylase fluorescence [5]: pure static quenching | Kq ([5]; T 298 K): 4.04 ± 0.01 ×10^12 L/mol/s | Ksv ([5]; T 298 K): 4.04 ± 0.01 ×10^4 L/mol | n (number of binding sites) ([5]; T 298 K): 1.36 | ΔG^0 ([5]; T 298 K): -8.315 ± 0.022 kcal/mol | Kq ([5]; T 304 K): 3.55 ± 0.08 ×10^12 L/mol/s | Ksv ([5]; T 304 K): 3.55 ± 0.08 ×10^4 L/mol | n (number of binding sites) ([5]; T 304 K): 1.28 | ΔG^0 ([5]; T 304 K): -7.928 ± 0.017 kcal/mol | Kq ([5]; T 310 K): 3.01 ± 0.07 ×10^12 L/mol/s | Ksv ([5]; T 310 K): 3.01 ± 0.07 ×10^4 L/mol | n (number of binding sites) ([5]; T 310 K): 1.20 | ΔG^0 ([5]; T 310 K): -7.572 ± 0.017 kcal/mol | ΔH^0 [5]: -26.778 ± 0.014 kcal/mol | ΔS^0 [5]: −259.31 ± 0.09 J/mol/k
